# Structures can show the parent of a compound that is named as a salt.
# Assay: In-vitro permeation testing with a Franz Cell Diffusion System
# Description: In-vitro Permeation testing was performed for the dosage forms in Table 8 with a Franz Cell Diffusion System. The receiving chamber was filled in water solution and stirred with magnetic bar. Fix the PermeaPad® Barrier membrane at the surface. The PermeaPad® Barrier consists of two cellulose membranes and in between there is a Lipid layer Lecithine (S-100). Place the donating chamber onto the receiving chamber and effectively sandwich the membrane. Add 5 mg of the film prepared in Table 8 into the donating chamber and introduce 1 ml of water to dissolve the film. Start the timer for the experiment.
# Permeability (P, cm/h), in general within first 8 hours, is defined as the rate of flow of liquid through the membrane.
# The similar procedure was performed for the other APIs with a molecule weight ranging from 100 to 6000 g/mol.
Molecule,Pemeability (cm/h) via PermeaPad Biomimetic Membrane in vitro (enhancer condition not stated),Pemeability (cm/h) via PermeaPad Biomimetic Membrane in vitro (HLB9.4),Pemeability (cm/h) via PermeaPad Biomimetic Membrane in vitro (HLB15) [cm/h],Pemeability (cm/h) via PermeaPad Biomimetic Membrane in vitro (no enhancers),Pemeability (cm/h) via PermeaPad Biomimetic Membrane in vitro (HLB4.3),Pemeability (cm/h) via PermeaPad Biomimetic Membrane in vitro (HLB9.0)
"CC[C@H](C)[C@H](NC(=O)[C@H](CCC(=O)O)NC(=O)[C@H](CCC(=O)O)NC(=O)[C@H](Cc1ccccc1)NC(=O)[C@H](CC(=O)O)NC(=O)CNC(=O)[C@H](CC(N)=O)NC(=O)CNC(=O)CNC(=O)CNC(=O)CNC(=O)[C@@H]1CCCN1C(=O)[C@H](CCCNC(=N)N)NC(=O)[C@@H]1CCCN1C(=O)[C@H](N)Cc1ccccc1)C(=O)N1CCC[C@H]1C(=O)N[C@@H](CCC(=O)O)C(=O)N[C@@H](CCC(=O)O)C(=O)N[C@@H](Cc1ccc(O)cc1)C(=O)N[C@@H](CC(C)C)C(=O)O [Bivalirudin Peptide, Bivalirudin]",Un-detectable,,,,,
Cn1c(=O)c2c(ncn2C)n(C)c1=O [Caffeine],,"(HLB15), 7.76 (HLB9.4) cm/h",5.01,0.277 cm/h,,
"NC(=O)c1ccc[n+]([C@@H]2O[C@H](COP(=O)([O-])O)[C@@H](O)[C@H]2O)c1 [Beta-nicotinamide mononucleotide, NMN, Beta-nicotinamide mononucleotide]",,0.38 (HLB9.4) cm/h,,"0.23 (No enhancers), cm/h","0.23 (HLB4.3), cm/h",
CN1CCc2cccc3c2[C@H]1Cc1ccc(O)c(O)c1-3 [Apomorphine HCL],,,1.87,0.413 cm/h,,"(HLB15), 2.73 (HLB9.0) cm/h"
Insulin,Un-detectable,,,,,

# From US12558312B2, “Solid dosage form for transmucosal drug delivery” (Primo Pharmatech LLC, priority 2020, dated 2026)
